From ChEMBL document CHEMBL1201862, “PubChem BioAssay data set” (2004)
“And” between values parts separate entries of the source, which are not always exact repeats. Equal values may be shown once.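 Growth conditions: 96-well plates. Treatment: test compound, 48 hours, 5 concentrations. Analysis: linear interpolation between bracketing concentrations; unreached endpoints set to highest concentration. The concentration for 50% growth inhibition is given as GI50.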 The source made the active and inactive calls. No stated cut-off is given here; in the data, active = GI50 up to about 1.1 µM and inactive = higher.

Columns and labels:
Assay in all cases: inhibition of tumour cell growth, NCI panel, 48 h
K562 = system: K562
SF-295 = system: SF-295
SN12C = system: SN12C
KM12 = system: KM12
NCI-H522 = system: NCI-H522
SF-268 = system: SF-268
SK-MEL-28 = system: SK-MEL-28
M14 = system: M14
LOX IMVI = system: LOX IMVI
COLO 205 = system: COLO 205
UO-31 = system: UO-31
HCT-116 = system: HCT-116
SW-620 = system: SW-620
SNB-75 = system: SNB-75
SK-OV-3 = system: SK-OV-3
EKVX = system: EKVX
UACC-62 = system: UACC-62
HOP-62 = system: HOP-62
RPMI-8226 = system: RPMI-8226
SK-MEL-2 = system: SK-MEL-2

Measured: GI50

C1CCC(OC2CSC2)OC1 (configuration not stated)
inactive: K562 > 100 µM | SF-295 > 100 µM | SN12C > 100 µM | KM12 > 100 µM | NCI-H522 > 100 µM | SF-268 > 100 µM | SK-MEL-28 > 100 µM | M14 > 100 µM | LOX IMVI > 100 µM | COLO 205 > 100 µM | UO-31 > 100 µM | HCT-116 > 100 µM | SW-620 > 100 µM | SNB-75 > 100 µM | SK-OV-3 > 100 µM

CC1=C(C)Cc2c(O)ccc(O)c2C1
inactive: K562 18.8 µM | EKVX 14.5 µM | UACC-62 16.5 µM | SF-295 47.4 µM | HOP-62 21.5 µM | SN12C 21.8 µM | KM12 31.3 µM | SF-268 15.5 µM | SK-MEL-28 12 µM | M14 16.2 µM | LOX IMVI 19.9 µM | COLO 205 20.4 µM | UO-31 16.9 µM | HCT-116 15.9 µM | SW-620 18.3 µM | SNB-75 16.2 µM | SK-OV-3 76.2 µM | RPMI-8226 6 µM

CCc1cc(=O)n(/C(C)=C/c2ccccc2)n1C
inactive: K562 > 100 µM | EKVX > 100 µM | UACC-62 > 100 µM | SF-295 > 100 µM | HOP-62 > 100 µM | SN12C > 100 µM | KM12 > 100 µM | SF-268 > 100 µM | SK-MEL-28 > 100 µM | M14 > 100 µM | LOX IMVI > 100 µM | SK-MEL-2 > 100 µM | COLO 205 > 100 µM | UO-31 > 100 µM | HCT-116 > 100 µM | SW-620 > 100 µM | SNB-75 > 100 µM | SK-OV-3 > 100 µM | RPMI-8226 > 100 µM

COc1cc2c3cc1Oc1c(OC)c(OC)cc4c1C(Cc1ccc(cc1)Oc1cc(ccc1O)CC3N(C)CC2)N(C)CC4 (configuration not stated)
inactive: K562 1.49 µM and 1.71 µM | EKVX 24.9 µM and 13.1 µM | UACC-62 8.89 µM and 15.1 µM | HOP-62 18.1 µM | SN12C 21.7 µM and 15.1 µM | KM12 11.9 µM and 11.4 µM | SF-268 14.1 µM and 10.8 µM | M14 1.87 µM and 2 µM | SK-MEL-2 12.9 µM and 8.69 µM | UO-31 4.9 µM and 8.28 µM | HCT-116 4.6 µM and 6.76 µM | SW-620 10.3 µM and 8.36 µM | SNB-75 11.1 µM and 11.8 µM | SK-OV-3 13.4 µM and 25.6 µM | RPMI-8226 6.64 µM
